# Source: patent US10975049B2, “Nicotinyl alcohol ether derivative, preparation method therefor, and pharmaceutical composition and uses thereof” (Institute of Materia Medica, Chinese Academy of Medical …, priority 2016, dated 2021)
# Assays:
# [1] = system: high metastatic melanoma B16F10; test: Subcutaneous xenograft model of high metastatic melanoma B16F10; type: in vivo, C57BL/6 or Bablc mice; conditions: for T/C % (relative tumor proliferation rate) / TGI % (tumor growth inhibition rate): tumor weight
# Procedure: (§1) The method in subcutaneous xenograft tumor was as follows. The cultured specific tumor cells were digested and collected by centrifugation, and washed with sterile physiological saline for two times and then counted. The cell concentration was adjusted to 5×10^6/ml by physiological saline, and 0.2 ml of cell suspension was inoculated to the right armpit of C57BL/6 or Bablc mice. After inoculation, the animals were randomly divided into two groups in next day. Each group had 6-7 mice. After weighing, the animals were dosed once each day to monitor tumor size. When the tumor size reached to a certain size, the mice was weighed and blood was collected from mice orbit and then the mice were killed by removing the neck. The tumor tissue, thymus tissue and spleen tissue were collected and weighed respectively. Finally, the tumor growth inhibition rate was calculated, and the tumor growth inhibition rate was used to evaluate the level of anti-tumor effect.
# (§2) In the study of the mechanism of the above models, the method of flow cytometry was adopted in measuring the total cell proportion of T cells of various types. The specific steps were as follows. The samples were treated at first. For blood tissue, the orbital blood was taken. The red cell lysate was used to remove the red blood cells, and then the PBS buffer was used for wash. After being washed, the cells were collected. For the tumor and spleen, the tissues were grinded with a homogenizer, and then diluted with PBS buffer, then filtered by 300 meshes of screen. After the number of cells was counted for each sample, 1×10^6 cells were added into EP tube and stained for flow antibody. After incubation for 1 h on ice, each sample was washed 2 times with PBS buffer. The cell population was analyzed by VERSE flow instrument of BD Company. The total number of cells in tumor tissue was 1×10^5 and the total number of cells in blood and spleen tissues was 1×10^4. The ratio of T cells to total number of cells was analyzed after flow cytometry.
# [2] = system: high metastatic melanoma B16F10; test: Lung metastasis model of high metastatic melanoma B16F10; type: in vivo, C57BL/6 mice; conditions: for Tumor number X ± SD: lung; for T/C % (relative tumor proliferation rate) / TGI % (tumor growth inhibition rate): tumor number
# Procedure: The method in B16F10 lung metastasis model was as follows. The cultured B16F10 tumor cells were digested and centrifuged and washed for two times with sterile physiological saline and then counted. And the cell concentration was adjusted to 2.5×10^6/ml by physiological saline. 0.2 ml of cells were injected into the C57BL/6 mice through the tail vein, and the tumor cells will gather in the lung of the mice. After inoculation, the animals were randomly divided into two groups in next day. Each group had 6-7 mice. After weighing, the animals were dosed once each day. After 3 weeks, the mice were weighed and killed, the lung tissue was collected and weighed, and the number of lung tumors was counted after being fixed by the Bouin's Fluid. Finally, the tumor growth inhibition rate was calculated, and the tumor growth inhibition rate was used to evaluate the level of anti-tumor effect.
# as §2
# mouse breast cancer EMT6 = test: Subcutaneous xenograft model of mouse breast cancer EMT6; type: in vivo, C57BL/6 or Bablc mice
# Procedure: as §1
# mouse colon cancer MC38 = test: Subcutaneous xenograft model of mouse colon cancer MC38; type: in vivo, C57BL/6 or Bablc mice; conditions: 60 mg/kg
# Procedure: as §1
# [3] = spleen, CTX group, dose not given
structure (smiles),measurement,setting,value
"O=P1(N(CCCl)CCCl)NCCCO1 (stereo not shown) [Cyclophosphamide (CTX), Cyclophosphamide, reference compound]",Tumorweight(g) X ± SD,[1]; 80 mg/kg,1.55 ± 0.59 g
same,Body weight (g) Mean ± SD Begin,[1]; 80 mg/kg,20.3 ± 0.8 g
same,Body weight (g) Mean ± SD End,[1]; 80 mg/kg,23.3 ± 1.4 g
same,T/C % (relative tumor proliferation rate),[1]; 80 mg/kg,60.00%
same,TGI % (tumor growth inhibition rate),[1]; 80 mg/kg,40.00%
same,CD3+ (%) T lymphocytes in spleen,[1]; [3],78.6 ± 2.5%
same,CD4+ (%) T lymphocytes in spleen,[1]; [3],24.6 ± 2.6%
same,CD8+ (%) T lymphocytes in spleen,[1]; [3],15.2 ± 3.1%
same,CD3+ (%) tumor-infiltrating T lymphocytes,"[1]; CTX group, dose not given",3.6 ± 1.5%
same,CD4+ (%) tumor-infiltrating T lymphocytes,"[1]; CTX group, dose not given",1.7 ± 0.4%
same,CD8+ (%) tumor-infiltrating T lymphocytes,"[1]; CTX group, dose not given",1.4 ± 0.3%
same,Body weight (g) Mean ± SD Begin,[2]; 80 mg/kg,20.1 ± 0.8 g
same,Body weight (g) Mean ± SD End,[2]; 80 mg/kg,21.4 ± 0.5 g
same,Tumor number X ± SD,[2]; 80 mg/kg,18 ± 14
same,T/C % (relative tumor proliferation rate),[2]; 80 mg/kg,85.7%
same,TGI % (tumor growth inhibition rate),[2]; 80 mg/kg,14.3%
same,CD3+ percentage of T lymphocyte in mouse blood,"[2]; CTX group, dose not given",22.4 ± 5.5%
same,CD4+ percentage of T lymphocyte in mouse blood,"[2]; CTX group, dose not given",13.0 ± 2.4%
same,CD8+ percentage of T lymphocyte in mouse blood,"[2]; CTX group, dose not given",7.5 ± 2.4%
same,T/C % (relative tumor proliferation rate),mouse breast cancer EMT6; 60 mg/kg,14.1%
same,TGI % (tumor growth inhibition rate),mouse breast cancer EMT6; 60 mg/kg,85.9%
same,Tumorweight(g) X ± SD,mouse breast cancer EMT6; 60 mg/kg,0.25 ± 0.17 g
same,Body weight (g) Mean ± SD Begin,"mouse breast cancer EMT6; 60 mg/kg, begin",18.4 ± 0.3 g
same,Body weight (g) Mean ± SD End,"mouse breast cancer EMT6; 60 mg/kg, end",19.4 ± 0.7 g
same,tumor growth inhibition rate,"mouse breast cancer EMT6; Cyclophosphamide alone vs combination, dose not restated",85%
same,T/C % (relative tumor proliferation rate),mouse colon cancer MC38,5.4%
same,TGI % (tumor growth inhibition rate),mouse colon cancer MC38,94.6%
same,Tumor weight(g) Mean ± SD,mouse colon cancer MC38,0.17 ± 0.05 g
same,Body weight (g) Mean ± SD Begin,mouse colon cancer MC38; begin,17.9 ± 0.6 g
same,Body weight (g) Mean ± SD End,mouse colon cancer MC38; end,19.1 ± 0.8 g
"CCOC(=O)[C@H](CO)NCc1cc(Cl)c(OCc2cccc(-c3ccccc3)c2Br)cc1OCc1cccnc1.Cl.Cl [Example 5, (S)-Ethyl N-(4-(2-bromo-3-phenylbenzyloxy)-5-chloro-2-(pyridin-3-yl-methyleneoxy)benzyl) serinate dihydrochloride]",Tumorweight(g) X ± SD,[1]; 15 mg/kg,2.69 ± 1.99 g
same,Body weight (g) Mean ± SD Begin,[1]; 15 mg/kg,20.4 ± 1.0 g
same,Body weight (g) Mean ± SD End,[1]; 15 mg/kg,24.2 ± 2.2 g
same,T/C % (relative tumor proliferation rate),[1]; 15 mg/kg,104.26%
same,TGI % (tumor growth inhibition rate),[1]; 15 mg/kg,−4.26%
same,Tumorweight(g) X ± SD,[1]; 45 mg/kg,1.41 ± 0.60 g
same,Body weight (g) Mean ± SD Begin,[1]; 45 mg/kg,20.3 ± 1.0 g
same,Body weight (g) Mean ± SD End,[1]; 45 mg/kg,22.6 ± 1.4 g
same,T/C % (relative tumor proliferation rate),[1]; 45 mg/kg,54.73%
same,TGI % (tumor growth inhibition rate),[1]; 45 mg/kg,45.27%
same,proportion of tumor-infiltrating lymphocytes,[1]; result in words,increase
same,CD3+ (%) tumor-infiltrating T lymphocytes,[1]; 45 mg,10.1 ± 4.5%
same,CD4+ (%) tumor-infiltrating T lymphocytes,[1]; 45 mg,9.0 ± 4.7%
same,CD8+ (%) tumor-infiltrating T lymphocytes,[1]; 45 mg,5.2 ± 2.8%
same,Body weight (g) Mean ± SD Begin,[2]; 15 mg/kg,20.6 ± 0.7 g
same,Body weight (g) Mean ± SD End,[2]; 15 mg/kg,20.2 ± 1.5 g
same,Tumor number X ± SD,[2]; 15 mg/kg,18 ± 18
same,T/C % (relative tumor proliferation rate),[2]; 15 mg/kg,85.7%
same,TGI % (tumor growth inhibition rate),[2]; 15 mg/kg,14.3%
same,Body weight (g) Mean ± SD Begin,[2]; 45 mg/kg,20.5 ± 0.6 g
same,Body weight (g) Mean ± SD End,[2]; 45 mg/kg,21.2 ± 0.7 g
same,Tumor number X ± SD,[2]; 45 mg/kg,16 ± 7
same,T/C % (relative tumor proliferation rate),[2]; 45 mg/kg,76.2%
same,TGI % (tumor growth inhibition rate),[2]; 45 mg/kg,23.8%
same,CD3+ percentage of T lymphocyte in mouse blood,[2]; 15 mg,22.7 ± 4.8%
same,CD4+ percentage of T lymphocyte in mouse blood,[2]; 15 mg,14.4 ± 3.3%
same,CD8+ percentage of T lymphocyte in mouse blood,[2]; 15 mg,7.4 ± 1.9%
same,CD3+ percentage of T lymphocyte in mouse blood,[2]; 45 mg,25.8 ± 3.0%
same,CD4+ percentage of T lymphocyte in mouse blood,[2]; 45 mg,15.7 ± 2.5%
same,CD8+ percentage of T lymphocyte in mouse blood,[2]; 45 mg,7.6 ± 1.8%
same,percentage of lymphocyte in mouse blood,[2]; result in words,increase
